Experimental data reported in patent US20260174875A1 (Novo Nordisk A/S, priority 2023, published 2026).
Read-outs that look alike come from different tables or passages of the source.

Experiments:
Assay type in all cases: cell-based
[1] = biological target: T1, human amylin receptor (hAMYR3) (Homo sapiens, UniProt O60896+P30988); assay: Amylin receptor assay, method B (CRE-luciferase reporter, BHK cells)
T1 construct: host or cells: BHK cells (Hollex-1 line expressing hCTR(a) and CRE-Luc), further transfected with human RAMP3
Procedure: To assess how the activation of the receptors is potentially influenced by the presence of human serum albumin (HSA), the in vitro assays were performed in the absence of HSA and presence of 1% (w/v) HSA.
It is thus possible to measure hAMYR3 activity using a CRE-luciferase reporter gene introduced into Baby Hamster Kidney (BHK) cells co-expressing the hAMYR3.
The cell line was further transfected with human receptor modifying protein 3 (RAMP3) using standard methods.
After centrifugation, the cell pellet was resuspended and diluted to approximately 2.5-4.0×10^6 (2.5E+6 to 4.0E+6) cells/mL in Recovery™ Cell Culture Freezing Medium (Gibco, 12648-010). Cells were aliquoted and stored at −180° C. until use.
The assay buffer consisted of DMEM without phenol red (Gibco, 11880-028) supplemented with 1× GlutaMAX (Gibco, 35050-038), 10 mM HEPES (Gibco, 15630-056) and 1% (w/v) ovalbumin (Sigma, A5503) either with or without 0.1% (v/v) Pluronic F-68 (Gibco, 24040-032) and either with or without HSA (Sigma, A9511).
To perform the assay, hAMYR3 BHK Cre-Luc cells were thawed, washed once in PBS (Gibco 14190-094) and seeded in 40 μL growth medium in a white 384-well culture plate (PerkinElmer/Revvity, 6007688) at a cell density of 4.0×10^3 (4.0E+3) cells/well the day before the experiment. The plate was incubated over night at 37° C. in 5% CO2. […] Serial dilutions were then mixed in a new 96-well plate with equal volume (1:1:1 ratio) of assay buffer and either assay buffer without or with 3% HSA (Sigma, A-9511). Twenty microliters of the solution mix were transferred to the cells which previously were washed once with PBS (Gibco 14190-094). After a short centrifugation, the assay plates were incubated for 3 hours at 37° C. in 5% CO2 and let to equilibrated at room temperature for 10 minutes before the addition of 30 μL steadylite Plus™ PerkinElmer/Revvity, 6066759) per well. Plates were sealed and incubated at room temperature with gentle shaking for 30 minutes while protected from light. Luminescence was detected on a luminescence plate reader e.g., a Synergy 2 (BioTek).

[2] = biological target: T2, human GLP-1 receptor (hGLP-1R) (Homo sapiens, UniProt P43220); assay: GLP-1 receptor assay, method B (CRE-luciferase reporter, BHK cells, 384-well)
T2 construct: expressed in transfected cells

[3] = biological target: T3, human GIP receptor (hGIPR) (Homo sapiens, UniProt P48546); assay: GIP receptor assay, method B (CRE-luciferase reporter, BHK cells, 384-well)
T3 construct: expressed in transfected cells
T3 sequence (P48546 22-466): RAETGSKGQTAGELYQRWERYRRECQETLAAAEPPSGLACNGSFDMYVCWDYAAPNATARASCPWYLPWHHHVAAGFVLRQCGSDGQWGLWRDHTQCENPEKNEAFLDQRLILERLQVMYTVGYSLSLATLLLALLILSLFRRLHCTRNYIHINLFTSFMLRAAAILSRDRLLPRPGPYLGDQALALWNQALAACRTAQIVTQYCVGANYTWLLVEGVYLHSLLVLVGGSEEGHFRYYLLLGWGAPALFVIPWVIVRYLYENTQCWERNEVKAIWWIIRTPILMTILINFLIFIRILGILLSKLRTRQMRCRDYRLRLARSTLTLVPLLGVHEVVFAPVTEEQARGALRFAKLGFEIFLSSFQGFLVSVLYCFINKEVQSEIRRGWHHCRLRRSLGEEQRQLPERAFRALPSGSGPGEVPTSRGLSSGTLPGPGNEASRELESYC
From the text: Activation of the human GIP receptor leads to increased intra-cellular concentrations of cyclic AMP (cAMP) and the consequent transcription activation from promoters containing multiple copies of the cAMP response element (CRE). It is thus possible to measure GIP receptor activity using a CRE-luciferase reporter gene introduced into Baby Hamster Kidney (BHK) cells co-expressing the human GIP receptor.
Cells at about 80-90% confluency were washed once with PBS (Gibco 14190-094) and detached from the cell flasks with Versene (Gibco, 15040-066). After centrifugation, the cells were counted, resuspended and diluted to approximately 1.5-3.0×10^6 (1.5E+6 to 3.0E+6) cells/mL in Recovery Cell Culture Freezing Medium (Gibco, 12648-010) and stored at −180° C. in suitable aliquots until use.
The assay buffer consisted of DMEM without phenol red (Gibco, 11880-028) supplemented with 1× GlutaMAX (Gibco, 35050-038), 10 mM HEPES (Gibco, 15630-056), 1% (w/v) ovalbumin (Sigma, A5503) and 0.1% (v/v) Pluronic F-68 (Gibco, 24040-032) either with HSA or without HSA (Sigma, A9511).
Serial dilutions were transferred to a 384-well assay plate (PerkinElmer/Revvity, 6007688) and mixed with an equal volume (10 μL) of assay buffer without or with 3% HSA (Sigma, A-9511). Frozen stocks of hGIPR BHK Cre-Luc cells were thawed in a 37° C. water bath, washed once in PBS (Gibco 14190-094), diluted to 1.5×10^5 (1.5E+5) cells/mL in assay buffer (without HSA) and added (10 μL) to each well of the 384-well assay plate. After a short centrifugation, the assay plates were incubated for 3 hours at 37° C. in 5% CO2 and let to equilibrated at room temperature for 10 minutes before the addition of 30 μL steadylite Plus™ (PerkinElmer/Revvity, 6066759) per well. Plates were sealed and incubated at room temperature with gentle shaking for 30 minutes while protected from light. Luminescence was detected on a luminescence plate reader e.g. a Synergy 2 (BioTek).

[4] = hAMYR3 Potency, 1% HSA, EC50, methods B, in the presence of 1% HSA
[5] = method B, absence of HSA, read-out: hAMYR3 Potency, no HSA, EC50
[6] = hGLP-1R Potency, 1% HSA, EC50, methods B, in the presence of 1% HSA
[7] = method B, absence of HSA, read-out: hGLP-1R Potency, no HSA, EC50
[8] = hGIPR Potency, 1% HSA, EC50, methods B, in the presence of 1% HSA
[9] = method B, absence of HSA, read-out: hGIPR Potency, no HSA, EC50

T1 sequence (P30988 25-474): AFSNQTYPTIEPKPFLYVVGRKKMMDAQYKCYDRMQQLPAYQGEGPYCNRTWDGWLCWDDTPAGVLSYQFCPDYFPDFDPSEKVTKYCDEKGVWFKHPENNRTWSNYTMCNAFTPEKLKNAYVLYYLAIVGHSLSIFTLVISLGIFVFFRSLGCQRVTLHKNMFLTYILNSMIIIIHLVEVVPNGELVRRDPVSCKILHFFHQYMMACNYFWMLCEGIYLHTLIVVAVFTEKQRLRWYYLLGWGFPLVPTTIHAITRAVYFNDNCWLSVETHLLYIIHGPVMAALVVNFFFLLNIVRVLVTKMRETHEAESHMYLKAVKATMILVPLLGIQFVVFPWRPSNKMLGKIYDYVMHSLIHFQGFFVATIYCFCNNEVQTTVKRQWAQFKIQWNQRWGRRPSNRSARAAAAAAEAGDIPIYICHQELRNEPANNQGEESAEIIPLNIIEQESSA
T1 sequence (O60896 24-148): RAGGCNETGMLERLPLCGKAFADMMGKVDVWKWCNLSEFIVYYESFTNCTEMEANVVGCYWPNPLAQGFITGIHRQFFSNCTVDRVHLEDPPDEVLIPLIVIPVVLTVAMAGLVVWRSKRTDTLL
T2 sequence (P43220 24-463): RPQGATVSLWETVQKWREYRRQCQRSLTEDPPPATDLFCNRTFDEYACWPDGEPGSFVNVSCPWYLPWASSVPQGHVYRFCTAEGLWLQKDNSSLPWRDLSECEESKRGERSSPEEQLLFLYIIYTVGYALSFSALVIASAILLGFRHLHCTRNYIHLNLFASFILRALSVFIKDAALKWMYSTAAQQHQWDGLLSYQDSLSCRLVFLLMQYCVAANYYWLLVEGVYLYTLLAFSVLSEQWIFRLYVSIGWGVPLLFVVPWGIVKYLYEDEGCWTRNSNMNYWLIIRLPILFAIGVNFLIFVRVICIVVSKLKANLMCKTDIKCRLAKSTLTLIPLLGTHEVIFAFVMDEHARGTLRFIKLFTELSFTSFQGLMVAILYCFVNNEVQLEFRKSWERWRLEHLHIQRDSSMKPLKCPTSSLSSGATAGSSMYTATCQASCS

EC50 [1, 5] [nM] | EC50 [2, 7] [nM] | EC50 [3, 9] [nM] | SMILES | EC50 [1, 4] [nM] | EC50 [2, 6] [nM] | EC50 [3, 8] [nM] | EC50 ([1]; hAMYR3 Potency, no HSA, EC50, method B, absence of HSA) [nM] | EC50 ([2]; hGLP-1R Potency, no HSA, EC50, method B, absence of HSA) [nM] | EC50 ([3]; hGIPR Potency, no HSA, EC50, method B, absence of HSA) [nM]
0.01 | 0.0233 | 0.00436 | CC[C@H](C)[C@H](NC(=O)[C@H](CCC(=O)O)NC(=O)[C@H](CCC(=O)O)NC(=O)[C@H](CC(C)C)NC(=O)[C@H](CC(C)C)NC(=O)[C@@H](NC(=O)[C@H](CO)NC(=O)[C@H](Cc1ccc(O)cc1)NC(=O)[C@H](CC(=O)O)NC(=O)[C@H](CO)NC(=O)[C@@H](NC(=O)[C@H](Cc1ccccc1)NC(=O)[C@@H](NC(=O)CNC(=O)[C@H](CCC(=O)O)NC(=O)C(C)(C)NC(=O)[C@@H](N)Cc1ccc(O)cc1)[C@@H](C)O)[C@@H](C)O)[C@@H](C)CC)C(=O)N[C@@H](C)C(=O)N[C@@H](C)C(=O)N[C@@H](CCCNC(=N)N)C(=O)N[C@@H](CCC(=O)O)C(=O)N[C@@H](Cc1ccccc1)C(=O)N[C@H](C(=O)N[C@@H](CCC(=O)O)C(=O)N[C@@H](Cc1c[nH]c2ccccc12)C(=O)N[C@@H](CC(C)C)C(=O)N[C@@H](CC(C)C)C(=O)N[C@@H](C)C(=O)NCC(=O)NCC(=O)N1CCC[C@H]1C(=O)N[C@@H](CO)C(=O)N[C@@H](CO)C(=O)NCC(=O)N[C@@H](C)C(=O)NCC(=O)N[C@@H](C)C(=O)N[C@@H](CO)C(=O)N[C@@H](Cc1c[nH]cn1)C(=O)N[C@@H](CC(C)C)C(=O)N[C@@H](CO)C(=O)N[C@H](C(=O)N[C@@H](C)C(=O)N[C@@H](CCC(N)=O)C(=O)N[C@H](C(=O)N[C@@H](CCC(N)=O)C(=O)N[C@@H](CCCNC(=N)N)C(=O)N[C@@H](CC(C)C)C(=O)N[C@@H](CO)C(=O)N[C@@H](C)C(=O)N[C@@H](CCC(=O)O)C(=O)N[C@@H](CC(C)C)C(=O)N[C@@H](Cc1c[nH]cn1)C(=O)N[C@@H](CCCCNC(=O)COCCOCCNC(=O)COCCOCCNC(=O)CC[C@H](NC(=O)CCCCCCCCCCCCCCCCCCC(=O)O)C(=O)O)C(=O)N[C@@H](CC(C)C)C(=O)N[C@@H](C)C(=O)N[C@H](C(=O)N[C@@H](CCC(=O)O)C(=O)N1CCC[C@H]1C(=O)N[C@@H](CCCNC(=N)N)C(=O)N[C@H](C(=O)N[C@@H](CCC(=O)O)C(=O)N[C@H](C(=O)NCC(=O)N[C@@H](CO)C(=O)NCC(=O)N[C@@H](CO)C(=O)N1CCC[C@H]1C(N)=O)[C@@H](C)O)[C@@H](C)O)[C@@H](C)O)[C@@H](C)O)[C@@H](C)O)[C@@H](C)CC [Compound 179] | 1.35 | 0.17 | 0.0255 |  |  | 
0.00846 | 0.0288 | 0.00325 | CC[C@H](C)[C@H](NC(=O)[C@H](CCC(=O)O)NC(=O)[C@H](CCC(=O)O)NC(=O)[C@H](CC(C)C)NC(=O)[C@H](CC(C)C)NC(=O)[C@@H](NC(=O)[C@H](CO)NC(=O)[C@H](Cc1ccc(O)cc1)NC(=O)[C@H](CC(=O)O)NC(=O)[C@H](CO)NC(=O)[C@@H](NC(=O)[C@H](Cc1ccccc1)NC(=O)[C@@H](NC(=O)CNC(=O)[C@H](CCC(=O)O)NC(=O)C(C)(C)NC(=O)[C@@H](N)Cc1ccc(O)cc1)[C@@H](C)O)[C@@H](C)O)[C@@H](C)CC)C(=O)N[C@@H](C)C(=O)N[C@@H](C)C(=O)N[C@@H](CCCNC(=N)N)C(=O)N[C@@H](CCC(=O)O)C(=O)N[C@@H](Cc1ccccc1)C(=O)N[C@H](C(=O)N[C@@H](CCC(=O)O)C(=O)N[C@@H](Cc1c[nH]c2ccccc12)C(=O)N[C@@H](CC(C)C)C(=O)N[C@@H](CC(C)C)C(=O)N[C@@H](C)C(=O)NCC(=O)NCC(=O)N1CCC[C@H]1C(=O)N[C@@H](CO)C(=O)N[C@@H](CO)C(=O)N[C@@H](CCC(=O)O)C(=O)N[C@@H](C)C(=O)NCC(=O)N[C@@H](C)C(=O)N[C@@H](CO)C(=O)N[C@@H](CCC(N)=O)C(=O)N[C@@H](CC(C)C)C(=O)N[C@@H](CO)C(=O)N[C@H](C(=O)N[C@@H](C)C(=O)N[C@@H](CCC(N)=O)C(=O)N[C@H](C(=O)N[C@@H](CCC(N)=O)C(=O)N[C@@H](CCCNC(=N)N)C(=O)N[C@@H](CC(C)C)C(=O)N[C@@H](CO)C(=O)N[C@@H](C)C(=O)N[C@@H](CCC(=O)O)C(=O)N[C@@H](CC(C)C)C(=O)N[C@@H](Cc1c[nH]cn1)C(=O)N[C@@H](CCCCNC(=O)COCCOCCNC(=O)COCCOCCNC(=O)CC[C@H](NC(=O)CCCCCCCCCCCCCCCCCCC(=O)O)C(=O)O)C(=O)N[C@@H](CC(C)C)C(=O)N[C@@H](C)C(=O)N[C@H](C(=O)N[C@@H](CC(C)C)C(=O)N1CCC[C@H]1C(=O)N[C@@H](CCCNC(=N)N)C(=O)N[C@H](C(=O)N[C@@H](CCC(=O)O)C(=O)N[C@H](C(=O)NCC(=O)N[C@@H](CO)C(=O)NCC(=O)N[C@@H](CO)C(=O)N1CCC[C@H]1C(N)=O)[C@@H](C)O)[C@@H](C)O)[C@@H](C)O)[C@@H](C)O)[C@@H](C)O)[C@@H](C)CC [Compound 181] |  |  |  |  |  | 
 |  |  | CC[C@H](C)[C@H](NC(=O)[C@H](CCC(=O)O)NC(=O)[C@H](CCC(=O)O)NC(=O)[C@H](CC(C)C)NC(=O)[C@H](CC(C)C)NC(=O)[C@@H](NC(=O)[C@H](CO)NC(=O)[C@H](Cc1ccc(O)cc1)NC(=O)[C@H](CC(=O)O)NC(=O)[C@H](CO)NC(=O)[C@@H](NC(=O)[C@H](Cc1ccccc1)NC(=O)[C@@H](NC(=O)CNC(=O)[C@H](CCC(=O)O)NC(=O)C(C)(C)NC(=O)[C@@H](N)Cc1ccc(O)cc1)[C@@H](C)O)[C@@H](C)O)[C@@H](C)CC)C(=O)N[C@@H](C)C(=O)N[C@@H](C)C(=O)N[C@@H](CCCNC(=N)N)C(=O)N[C@@H](CCC(=O)O)C(=O)N[C@@H](Cc1ccccc1)C(=O)N[C@H](C(=O)N[C@@H](CCC(=O)O)C(=O)N[C@@H](Cc1c[nH]c2ccccc12)C(=O)N[C@@H](CC(C)C)C(=O)N[C@@H](CC(C)C)C(=O)N[C@@H](C)C(=O)NCC(=O)NCC(=O)N1CCC[C@H]1C(=O)N[C@@H](CO)C(=O)N[C@@H](CO)C(=O)NCC(=O)N[C@@H](C)C(=O)NCC(=O)N[C@@H](CCC(=O)O)C(=O)N[C@@H](C)C(=O)N1CCC[C@H]1C(=O)NCC(=O)N[C@@H](CCC(=O)O)C(=O)N[C@@H](C)C(=O)N1CCC[C@H]1C(=O)NCC(=O)N[C@@H](C)C(=O)N[C@@H](CO)C(=O)N[C@@H](Cc1c[nH]cn1)C(=O)N[C@@H](CC(C)C)C(=O)N[C@@H](CO)C(=O)N[C@H](C(=O)N[C@@H](C)C(=O)N[C@@H](CCC(N)=O)C(=O)N[C@H](C(=O)N[C@@H](CCC(N)=O)C(=O)N[C@@H](CCCNC(=N)N)C(=O)N[C@@H](CC(C)C)C(=O)N[C@@H](CO)C(=O)N[C@@H](C)C(=O)N[C@@H](CCC(=O)O)C(=O)N[C@@H](CC(C)C)C(=O)N[C@@H](Cc1c[nH]cn1)C(=O)N[C@@H](CCCCNC(=O)COCCOCCNC(=O)COCCOCCNC(=O)CC[C@H](NC(=O)CCCCCCCCCCCCCCCCCCC(=O)O)C(=O)O)C(=O)N[C@@H](CC(C)C)C(=O)N[C@@H](C)C(=O)N[C@H](C(=O)N[C@@H](CC(C)C)C(=O)N1CCC[C@H]1C(=O)N[C@@H](CCCNC(=N)N)C(=O)N[C@H](C(=O)N[C@@H](CCC(=O)O)C(=O)N[C@H](C(=O)NCC(=O)N[C@@H](CO)C(=O)NCC(=O)N[C@@H](CO)C(=O)N1CCC[C@H]1C(N)=O)[C@@H](C)O)[C@@H](C)O)[C@@H](C)O)[C@@H](C)O)[C@@H](C)O)[C@@H](C)CC [Compound 189] | 1.21 | 0.0819 | 0.00918 | 0.0127 | 0.0269 | 0.00318
